Results from patent publication US20080118441A1, “COMPOSITIONS AND METHODS FOR THE TREATMENT OF GASTROINTESTINAL CONDITIONS” (priority 2006, published 2008).

Test system: symptoms of a gastrointestinal condition
Experiment: ingestion of glutamine shortly after the present compositions
Format: in vivo
Conditions: glutamine ingested shortly after the compositions
Description: In one example, the symptoms of a gastrointestinal condition will reappear rapidly if glutamine is ingested shortly after the present compositions. Exclusion of glutamine from the present compositions is therefore contemplated, and it may be advisable for persons being treated with the present compositions to reduce dietary consumption of glutamine, especially within one hour of ingesting the disclosed composition. Typically, an average person consumes 5-10 grams glutamine per day. In one embodiment, a person being treated with the present composition consumes no glutamine within one hour of ingestion, and preferably consumes less than about 5 grams glutamine per day, more preferably less than about 4.5 grams glutamine per day, and most preferably less than about 4 grams glutamine per day.

## NC(=O)CC[C@H](N)C(=O)O [glutamine]
  effect on the therapeutic effect of the disclosed compositions: counteracts the therapeutic effect
